The values below come from article PMC3907537, “Evaluation of the Endothelin Receptor Antagonists Ambrisentan, Bosentan, Macitentan, and Sitaxsentan as Hepatobiliary Transporter Inhibitors and Substrates in Sandwich-Cultured Human Hepatocytes” (PLoS ONE, 2014).

Data set [1] relates to sandwich-cultured human hepatocytes. The data set is described as follows: Hepatic disposition (intracellular accumulation) of ERAs in sandwich-cultured human hepatocytes. Format: in vitro ADME. The note with it: sandwich-cultured human hepatocytes, 1, 10 and 100 µM, 10 min, n = 3 donors. The procedure: Sandwich-cultured human hepatocytes were obtained from Celsis/IVT (Baltimore, MD) or Life Technologies (Durham, NC). Donors were male (n = 3) and female (n = 1) between the ages of 31 and 62 years old. Hepatic uptake, biliary excretion and in vitro biliary clearance (Clb) were determined using the B-CLEAR® hepatocyte sandwich culture model as described by Liu et al., 1999 [34]. In this system, hepatocytes form functional bile canalicular networks while maintaining the expression and function of key uptake and efflux transporters. The canalicular system of bile pockets remains separate from the cellular culture media due to tight junctions between cells. The integrity of these tight junctions is maintained in the presence of calcium (Plus (+) buffer) while in the absence of calcium (Minus (−) buffer), these tight junctions open and release the contents of the canalicular network into the media.
Incubation solutions containing ERA (1, 10 and 100 µM) were prepared in Plus (+) buffer. Cell culture medium was removed from the wells and the cells were washed twice with Plus (+) or Minus (−) buffer. The wash solutions were then removed and replaced with fresh Plus (+) or Minus (−) buffer. The cells were conditioned for 10 min at 37°C. After the 10 min exposure, the buffer solutions were removed and replaced with the incubation solutions and incubated for 10 min at 37°C. Following 10 min incubation, the incubation solutions were removed and the cells were then washed three times with ice-cold Plus (+) Buffer. The plates were frozen at −80°C until processed for bioanalysis.
Study samples were stored in their original 24-well plates at −80°C until prepared for analysis. A volume of 500 µL of cell lysis solution (70∶30 methanol:water) containing 25 nM internal standard was added to each well and mixed for 20 min of mixing. […] Prepared samples were filtered and analyzed by LC-MS/MS using a Shimadzu binary HPLC system (Columbia, MD) and tandem mass spectrometry using Thermo Electron TSQ® Quantum Discovery MAX™ (Waltham, MA) with an Ion Max ESI source operating in negative ion electrospray ionization mode. Results for unknowns and QCs were calculated using a standard curve based on an internal standard processing method.
Data calculations were performed using Microsoft Excel, 2010 with all values reported as mean ± standard deviation (SD). […] All mass values were normalized to mg protein by taking the average protein mass in the taurocholate plate determined using a BCA protein assay (Pierce Biotechnology, Rockford, IL). Cellular accumulation determined in Minus (−) buffer (Accumulation Minus (−) Buffer) represents the total mass of analyte inside the hepatocyte at the end of the incubation time period. […]

In data set [2] the target is T1, MRP2 (Homo sapiens, UniProt Q92887).
T1 construct: purchased Solvo Biotechnology, Budaors, Hungary; host or cells: Sf9 insect cells (membrane vesicles)
T1 sequence (Q92887 whole entry): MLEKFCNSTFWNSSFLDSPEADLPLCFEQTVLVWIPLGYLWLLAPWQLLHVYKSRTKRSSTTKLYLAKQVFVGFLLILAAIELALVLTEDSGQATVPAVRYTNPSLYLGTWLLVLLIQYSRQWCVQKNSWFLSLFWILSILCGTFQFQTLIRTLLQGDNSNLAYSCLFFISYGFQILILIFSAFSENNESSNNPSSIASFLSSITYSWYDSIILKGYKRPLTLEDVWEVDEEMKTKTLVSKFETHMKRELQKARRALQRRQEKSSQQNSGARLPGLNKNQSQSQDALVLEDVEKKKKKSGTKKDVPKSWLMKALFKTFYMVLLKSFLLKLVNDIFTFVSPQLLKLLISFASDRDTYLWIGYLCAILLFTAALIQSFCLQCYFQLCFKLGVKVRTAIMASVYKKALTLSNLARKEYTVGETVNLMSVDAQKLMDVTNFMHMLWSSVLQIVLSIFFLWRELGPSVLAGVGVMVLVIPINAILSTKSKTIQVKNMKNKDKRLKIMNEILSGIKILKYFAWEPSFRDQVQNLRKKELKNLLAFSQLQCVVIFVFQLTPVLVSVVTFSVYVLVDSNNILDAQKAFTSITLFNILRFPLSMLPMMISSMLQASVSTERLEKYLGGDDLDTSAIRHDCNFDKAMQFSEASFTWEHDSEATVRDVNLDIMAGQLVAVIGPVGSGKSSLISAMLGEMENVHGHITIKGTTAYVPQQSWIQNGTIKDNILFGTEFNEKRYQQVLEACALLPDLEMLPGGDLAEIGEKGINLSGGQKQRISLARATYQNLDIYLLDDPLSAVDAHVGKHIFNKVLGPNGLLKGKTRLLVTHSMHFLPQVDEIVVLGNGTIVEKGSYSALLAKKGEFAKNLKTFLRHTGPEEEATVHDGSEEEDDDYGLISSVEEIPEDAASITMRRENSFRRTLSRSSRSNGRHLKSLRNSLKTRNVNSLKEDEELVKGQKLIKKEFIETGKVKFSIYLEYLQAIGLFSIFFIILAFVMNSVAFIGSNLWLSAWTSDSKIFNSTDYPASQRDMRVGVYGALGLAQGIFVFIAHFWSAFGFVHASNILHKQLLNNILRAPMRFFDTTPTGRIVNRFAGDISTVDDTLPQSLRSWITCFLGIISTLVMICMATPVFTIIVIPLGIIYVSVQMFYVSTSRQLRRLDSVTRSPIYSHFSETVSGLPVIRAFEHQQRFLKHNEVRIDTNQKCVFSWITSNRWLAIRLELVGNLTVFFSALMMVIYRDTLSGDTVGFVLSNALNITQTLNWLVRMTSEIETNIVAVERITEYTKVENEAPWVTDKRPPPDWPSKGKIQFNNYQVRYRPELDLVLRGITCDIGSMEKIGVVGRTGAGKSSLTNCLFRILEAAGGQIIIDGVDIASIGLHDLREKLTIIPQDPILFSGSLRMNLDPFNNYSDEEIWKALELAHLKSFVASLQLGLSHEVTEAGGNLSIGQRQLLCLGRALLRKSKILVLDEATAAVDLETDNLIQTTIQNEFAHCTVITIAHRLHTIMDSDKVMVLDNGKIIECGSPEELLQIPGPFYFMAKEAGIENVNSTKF
The data set is described as follows: MRP2 inhibition, estradiol-17-beta-glucuronide transport in Sf9 membrane vesicles. Format: biochemical. The note with it: E217βG 0.2 µM, single experiment in duplicate, tested 0.14–100 µM. The text has this:
Chinese Hamster Ovary (CHO) cells were obtained from Professor B. Stieger’s laboratory at University of Zurich, Zurich, Switzerland. Madin-Darby Canine Kidney strain II (MDCKII) cells were obtained from Nederlands Kanker Instituut (NKI), Amsterdam, Netherlands. NTCP-CHO cells, BSEP and MRP2 membrane vesicles were developed and validated at Solvo Biotechnology, Budaors, Hungary.
BSEP and MRP2 inhibition was studied in membrane vesicles isolated from sf9 insect cells overexpressing the respective transporters. Vesicular transport inhibition assays used test compounds incubated with membrane vesicle preparations (total protein: 50 µg/well) and probe substrates, taurocholate (2 µM) for BSEP or Estradiol-17-beta-glucuronide (0.2 µM) for MRP2, in the absence or presence of ATP. Reaction mixtures were preincubated for 15 min at 37°C. Reactions were started by the addition of 25 µL of 12 mM MgATP or assay buffer (for background controls), preincubated separately. Reactions were stopped after 5 min by the addition of 200 µL of ice-cold washing buffer and immediate filtration via glass fiber filters mounted to a 96-well plate (filter plate). The filters were washed, dried and the amount of substrate inside the filtered vesicles determined by liquid scintillation. Cyclosporin A (20 µM) or benzbromarone (100 µM), for BSEP or MRP2, respectively, were used as positive control inhibitors. Control membranes lacking transporter expression were used as negative control.
All assays were performed in duplicate. IC50 was defined as the test article concentration needed to inhibit the maximal transporter specific accumulation by 50%. IC50 values were calculated using non-linear fitting of % inhibition versus concentration to a sigmoidal curve with a variable Hill Coefficient using GraphPad Prism 5 (GraphPad Software Inc., San Diego, CA).

Data set [3] concerns fresh human hepatocytes. The data set is described as follows: Cellular uptake of bosentan and macitentan into fresh human hepatocytes with or without transport inhibitors. The note with it: 300 nM. Format: in vitro ADME. The procedure: The cellular uptake of bosentan and macitentan was determined in fresh human hepatocytes purchased from Celsis/IVT (Baltimore, MD) or Life Technologies (Foster City, CA). Cells were pre-incubated in Krebs-Henseleit Buffer containing 5% bovine serum albumin for 30 min at 37°C prior to assay. Cells were then co-incubated in the presence and absence of an inhibitor cocktail containing 40 µM rifampicin and 5 µM of cyclosporin A for 15 min. Test compounds bosentan and macitentan were diluted to 3 fold of final target concentration in the same assay buffer and equilibrated at 37°C for 30 min. The uptake assay was initiated by adding 50 µL of test compound solution to the 48-well plate containing 100 µL cell suspension, mixed and incubated at 37°C for 30, 60 and 90 sec. Final cell density was 2×10^6 cells/mL with a final test compound concentration of 300 nM. The reaction mixture was overlaid onto pre-prepared microcentrifuge tubes containing 100 µL of 2 N NaOH (bottom layer) and 100 µL of filtration oil (middle layer; 74.5∶25.5 silicon oil:mineral oil mix) followed by centrifugation at 13,000 g for 30 sec. The samples were allowed to sit at room temperature for 2 h and then frozen at −80°C. The microcentrifuge tubes were then cut and the bottom layer containing the cell lysate collected. HCl solution was added to neutralize the solution. Samples were extracted with organic solvents for analysis by liquid chromatography coupled to tandem mass spectrometry (LC/MS/MS).

Structures are written as SMILES. Several values for one entry are separate records, joined by “and”; a condition that tells them apart may be missing. Equal entries are not always repeated.

As for `Cc1cc2c(cc1CC(=O)c1sccc1S(=O)(=O)Nc1onc(C)c1Cl)OCO2` [sitaxsentan], the “hepatocyte accumulation relative to the extracellular test concentration” value in data set [1] was roughly 40 x.

Usually IC50 stands for the point on the concentration scale where inhibition reaches its midpoint. A higher IC50 goes with a need for much substance. In data set [2], `COC(c1ccccc1)(c1ccccc1)[C@H](Oc1nc(C)cc(C)n1)C(=O)O` [ambrisentan] displayed an IC50 of roughly 75 µM.

The compound `COc1ccccc1Oc1c(NS(=O)(=O)c2ccc(C(C)(C)C)cc2)nc(-c2ncccn2)nc1OCCO` [bosentan] registered a 50% inhibitory concentration (IC50) in data set [2] greater than 100 µM. Also, the “hepatocyte accumulation relative to the extracellular test concentration” value in data set [1] is reported as roughly 20 x. For the same compound, the “reduction of cellular uptake in the presence of transport inhibitors” value in data set [3] (40 µM rifampicin plus 5 µM cyclosporin A, fresh human hepatocytes) is on record as 46%. The “cellular uptake in the absence of transport inhibitors” value in data set [3] (fresh primary human hepatocytes, n = 4 donors) was 4.6±0.7 pmol/million cells and 4.6 pmol/million cells.

Compound `CCCNS(=O)(=O)Nc1ncnc(OCCOc2ncc(Br)cn2)c1-c1ccc(Br)cc1` [macitentan] came in with an IC50 in data set [2] greater than 100 µM. Also, the “hepatocyte accumulation relative to the extracellular test concentration” value in data set [1] was greater than 100 x; in data set [1] (listed as Macitentan), roughly 100 x. In data set [3] (human), the “cellular uptake relative to that of bosentan” value is “approximately 7 times”.
